Measurements taken from patent US20240092799A1, “MNK INHIBITORS” (Hepagene Therapeutics (HK) Limited, priority 2020, published 2024).
Counter-ions that a name gives are not always drawn.

Legend:
[1] = system: TMD-8 cell p-IF4E; assay: p-eIF4E Signaling Cellular Assay (CisBio HTRF) in TMD-8 cells; type: cell-based; details: 40 min treatment
Procedure: p-eIF4E Signaling Cellular Assay. Phosphorylated eIF4E is assayed using the CisBio p-Eif4E HTRF assay kit. Reagents and equipment used in the assay are listed below, followed by the protocol.
Cell medium: RPMI 1640+10% FBS+1*PS, TMD-8 were cultured as recommended and assayed in exponential growth phase. • a) Plate 30 μL of cells in 384 white assay plate in appropriate medium and proper cell density (20 k/well) based on Optimization at 37° C. under 5% CO2 atmosphere • b) Dispense 90 nL of compounds diluted in DMSO and treat for 40 min at 37° C. under 5% CO2 atmosphere • c) Remove cell supernatant by flicking the plate • d) Add 16 μL of supplemented lysis buffer (1×) for 30 minutes at RT under shaking • e) Add 4 μL of premixed antibody solutions prepared in the detection buffer. Cover the plate with a plate sealer. Incubate 0/N at RT • f) Read the fluorescence emission at 665 nm and 620 nm on Envision • g) Data analysis • (1) Ratio […] signal is calculated for each well • (2) % Inhibition is calculated as follow:
% inhibition=100−(Signalcmpd-SignalAve_PC)/(SignalAve_VC-SignalAve_PC)×100. • (3) Calculate IC50 and Plot effect-dose curve of cmpds:
Calculate IC50 by fitting % Inhibition values and log of compound concentrations to nonlinear regression (dose response−variable slope) with Graphpad 8.0.
Y=Bottom+(Top−Bottom)/(1+10^((Log IC50−X)*Hill Slope)) • X: log of Inhibitor concentration; Y: % Inhibition.

[2] = target: MNK2 (Homo sapiens (Human), UniProt Q9HBH9); assay: MNK Biochemical Enzymatic Assay (ADP-Glo), MNK2 binding assay
Procedure, shortened: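 Human MNK1 or MNK2 was preincubated with a 10-point, 1:3 serial dilution of compound for 15 min at 25 °C. Substrate was then added and the reaction ran 60 min at 25 °C. ADP formed was read by ADP-Glo luminescence, and IC50 came from non-linear regression.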

Chain of MNK2 (Q9HBH9 whole entry): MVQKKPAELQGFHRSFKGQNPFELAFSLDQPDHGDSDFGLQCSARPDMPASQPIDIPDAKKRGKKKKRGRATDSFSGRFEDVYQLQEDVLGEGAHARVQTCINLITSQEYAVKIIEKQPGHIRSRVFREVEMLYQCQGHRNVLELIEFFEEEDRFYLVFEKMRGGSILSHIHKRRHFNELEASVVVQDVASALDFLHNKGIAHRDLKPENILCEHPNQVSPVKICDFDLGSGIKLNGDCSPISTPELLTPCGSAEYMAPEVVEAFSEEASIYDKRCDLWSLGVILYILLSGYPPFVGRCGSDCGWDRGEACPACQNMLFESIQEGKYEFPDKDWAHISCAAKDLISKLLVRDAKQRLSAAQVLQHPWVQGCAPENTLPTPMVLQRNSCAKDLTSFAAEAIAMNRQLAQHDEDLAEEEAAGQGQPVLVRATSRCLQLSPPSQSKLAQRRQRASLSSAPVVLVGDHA

SMILES	IC50 ([1]; Homo sapiens, TMD8, 40 min)	IC50 [2]	IC50 [1]
COc1c(N)ncnc1Nc1cc2c(s1)C(=O)NC21CCCCC1 [Compound X-C, 2′-((6-amino-5-methoxypyrimidin-4-yl)amino)spiro[cyclohexane-1,4′-thieno[2,3-c]pyrrol]-6′(5′H)-one]	10 to 100 nM	0.1 to 10 nM	
COc1c(N)ncnc1Nc1nc2c(s1)C(=O)NC21CCCCC1 [Compound XXVIII-G, 2′-((6-amino-5-methoxypyrimidin-4-yl)amino)spiro[cyclohexane-1,4′-pyrrolo[3,4-d]thiazol]-6′(5′H)-one]	10 to 100 nM	0.1 to 10 nM	
Cc1cc(Nc2cc(Nc3ccn(CCO)n3)ncn2)[n+]([O-])c2c1C(=O)NC21CCCCC1 [Compound XXIX-AT, 2′-((6-((1-(2-hydroxyethyl)-1H-pyrazol-3-yl)amino)pyrimidin-4-yl)amino)-4′-methyl-5′-oxo-5′,6′-dihydrospiro[cyclohexane-1,7′-pyrrolo[3,4-b]pyridine] 1′-oxide]	0.1 to 10 nM	0.1 to 10 nM	
O=C1NC2(CCCCC2)c2cc(Nc3ccnc(N[C@H]4CCOC4)c3)sc21 [Compound XXIV-B, (S)-2′-((2-((tetrahydrofuran-3-yl)amino)pyridin-4-yl)amino)spiro[cyclohexane-1,4′-thieno[2,3-c]pyrrol]-6′(5′H)-one]	10 to 100 nM	0.1 to 10 nM	
Cc1cc(Nc2cc(N[C@H]3CCOC3)ncn2)[n+]([O-])c2c1C(=O)NC21CCCCC1 [Compound XXIX-A, (S)-4′-methyl-5′-oxo-2′-((6-((tetrahydrofuran-3-yl)amino)pyrimidin-4-yl)amino)-5′,6′-dihydrospiro[cyclohexane-1,7′-pyrrolo[3,4-b]pyridine] 1′-oxide]	0.1 to 10 nM	0.1 to 10 nM	
Cc1ccc(Nc2cc(Nc3cc(C)c4c([n+]3[O-])C3(CCCCC3)NC4=O)ncn2)nc1 [Compound XXIX-AAA, 4′-methyl-2′-((6-((5-methylpyridin-2-yl)amino)pyrimidin-4-yl)amino)-5′-oxo-5′,6′-dihydrospiro[cyclohexane-1,7′-pyrrolo[3,4-b]pyridine] 1′-oxide]	0.1 to 10 nM	0.1 to 10 nM	
Cc1cc(Nc2cc(Nc3ccc(N4C[C@@H](C)N[C@@H](C)C4)cn3)ncn2)[n+]([O-])c2c1C(=O)NC21CCCCC1 [Compound XXIX-AAN, 2′-((6-((5-(cis-3,5-dimethylpiperazin-1-yl)pyridin-2-yl)amino)pyrimidin-4-yl)amino)-4′-methyl-5′-oxo-5′,6′-dihydrospiro[cyclohexane-1,7′-pyrrolo[3,4-b]pyridine]1′-oxide]	0.1 to 10 nM	0.1 to 10 nM	
O=C1NC2(CCCCC2)c2nc(Nc3cc(Nc4ccc(N5CCOCC5)cn4)ncn3)sc21 [Compound XXVIII-Q, 2′-((6-((5-morpholinopyridin-2-yl)amino)pyrimidin-4-yl)amino)spiro[cyclohexane-1,4′-pyrrolo[3,4-d]thiazol]-6′(5′H)-one]	0.1 to 10 nM	0.1 to 10 nM	
O=C1NC2(CCCCC2)c2cc(Nc3ncnc4[nH]ccc34)sc21 [Compound XVII-A, 2′-((7H-pyrrolo[2,3-d]pyrimidin-4-yl)amino)spiro[cyclohexane-1,4′-thieno[2,3-c]pyrrol]-6′(5′H)-one]	10 to 100 nM	0.1 to 10 nM	
O=C1NC2(CCCCC2)c2cc(Nc3cc(NC4CCCC4)ncn3)sc21 [Compound XXIII-N, 2′-((6-(Cyclopentylamino)pyrimidin-4-yl)amino)spiro[cyclohexane-1,4′-thieno[2,3-c]pyrrol]-6′(5′H)-one]	10 to 100 nM	10 to 100 nM	
CCN1CCN(c2ccc(Nc3cc(Nc4cc(C)c5c([n+]4[O-])C4(CCCCC4)NC5=O)ncn3)nc2)CC1 [Compound XXIX-AAO, 2′-[(6-{[5-(4-ethylpiperazin-1-yl)pyridin-2-yl]amino}pyrimidin-4-yl)amino]-4′-methyl-5′-oxo-6′H-spiro[cyclohexane-1,7′-pyrrolo[3,4-b]pyridin]-1′-ium-1′-olate]	0.1 to 10 nM	0.1 to 10 nM	
CN1CCN(c2ccc(Nc3cc(Nc4nc5c(s4)C(=O)NC54CCCCC4)ncn3)nc2)CC1 [Compound XXVIII-R, 2′-((6-((5-(4-methylpiperazin-1-yl)pyridin-2-yl)amino)pyrimidin-4-yl)amino)spiro [cyclohexane-1,4′-pyrrolo[3,4-d]thiazol]-6′(5′H)-one]	0.1 to 10 nM	0.1 to 10 nM	
O=C1NC2(CCCCC2)c2cc(Nc3ncnc4[nH]c(C5CC5)cc34)sc21 [Compound XXXI-A, 2′-((6-cyclopropyl-7H-pyrrolo[2,3-d]pyrimidin-4-yl)amino)spiro[cyclohexane-1,4′-thieno[2,3-c]pyrrol]-6′(5′H)-one]	0.1 to 10 nM	0.1 to 10 nM	
O=C1NC2(CCCCC2)c2nc(Nc3cc(N[C@H]4CCOC4)ncn3)sc21 [Compound XXVIII, (S)-2′-((6-((tetrahydrofuran-3-yl)amino)pyrimidin-4-yl)amino)spiro[cyclohexane-1,4′-pyrrolo[3,4-d]thiazol]-6′(5′H)-one]	10 to 100 nM	0.1 to 10 nM	
Cc1cc(Nc2cc(N)ncn2)[n+]([O-])c2c1C(=O)NC21CCCCC1 [Compound XXIX, 2′-((6-Aminopyrimidin-4-yl)amino)-4′-methyl-5′-oxo-5′,6′-dihydrospiro [cyclohexane-1,7′-pyrrolo[3,4-b]pyridine] 1′-oxide]	10 to 100 nM	0.1 to 10 nM	
O=C1NC2(CCCCC2)c2cc(Nc3ncnc4[nH]ncc34)sc21 [Compound XVII-B, 2′-((1H-pyrazolo[3,4-d]pyrimidin-4-yl)amino)spiro[cyclohexane-1,4′-thieno[2,3-c]pyrrol]-6′(5′H)-one]	100 to 1000 nM	0.1 to 10 nM	
Cn1cnc(Nc2cc(Nc3cc4c(s3)C(=O)NC43CCCCC3)ncn2)c1 [Compound XXXI-B, 2′-((6-((1-methyl-1H-imidazol-4-yl)amino)pyrimidin-4-yl)amino)spiro[cyclohexane-1,4′-thieno[2,3-c]pyrrol]-6′(5′H)-one]	100 to 1000 nM	10 to 100 nM	

The remaining lines, values ahead:

IC50 ([1]; Homo sapiens, TMD8, 40 min)	IC50 [2]	IC50 [1]	SMILES
100 to 1000 nM	0.1 to 10 nM		O=C1NC2(CCCCC2)c2cc(Nc3cc(NC(=O)C4CCOC4)ncn3)sc21 (centres unmarked) [Compound XXIV-I, N-(6-((6′-oxo-5′,6′-dihydrospiro[cyclohexane-1,4′-thieno[2,3-c]pyrrol]-2′-yl)amino)pyrimidin-4-yl)tetrahydrofuran-3-carboxamide]
0.1 to 10 nM	0.1 to 10 nM		Cc1cc(Nc2cc(Nc3ccc(N4CCNCC4)cn3)ncn2)[n+]([O-])c2c1C(=O)NC21CCCCC1 [Compound XXIX-AAL, 4′-methyl-5′-oxo-2′-[(6-{[5-(piperazin-1-yl)pyridin-2-yl]amino}pyrimidin-4-yl)amino]-6′H-spiro[cyclohexane-1,7′-pyrrolo[3,4-b]pyridin]-1′-ium-1′-olate]
	0.1 to 10 nM	10 to 100 nM	Cc1cc(Nc2cc(N[C@H]3C[C@@](C)(O)C3)ncn2)[n+]([O-])c2c1C(=O)NC21CCCCC1 [Compound XXIX-AAC, 4′-methyl-5′-oxo-2′-[(6-{[trans-3-hydroxy-3-methylcyclobutyl]amino}pyrimidin-4-yl)amino]-6′H-spiro[cyclohexane-1,7′-pyrrolo[3,4-b]pyridin]-1′-ium-1′-olate]
0.1 to 10 nM	0.1 to 10 nM		Cc1cc(Nc2cc(Nc3cccc(CO)n3)ncn2)[n+]([O-])c2c1C(=O)NC21CCCCC1 [Compound XXIX-AU, 2′-((6-((6-(hydroxymethyl)pyridin-2-yl)amino)pyrimidin-4-yl)amino)-4′-methyl-5′-oxo-5′,6′-dihydrospiro[cyclohexane-1,7′-pyrrolo[3,4-b]pyridine] 1′-oxide formate salt]
0.1 to 10 nM	0.1 to 10 nM		Cc1cc(Nc2cc(Nc3ccon3)ncn2)[n+]([O-])c2c1C(=O)NC21CCCCC1 [Compound XXIX-AAD, 2′-((6-(isoxazol-3-ylamino)pyrimidin-4-yl)amino)-4′-methyl-5′-oxo-5′,6′-dihydrospiro[cyclohexane-1,7′-pyrrolo[3,4-b]pyridine] 1′-oxide]
10 to 100 nM	0.1 to 10 nM		Cc1cccc(Nc2cc(Nc3cc(C)c4c([n+]3[O-])C3(CCCCC3)NC4=O)ncn2)n1 [Compound XXIX-AL, 4′-methyl-2′-((6-((6-methylpyridin-2-yl)amino)pyrimidin-4-yl)amino)-5′-oxo-5′,6′-dihydrospiro[cyclohexane-1,7′-pyrrolo[3,4-b]pyridine] 1′-oxide]
10 to 100 nM	0.1 to 10 nM		O=C1NC2(CCCCC2)c2cc(Nc3cc(Nc4ccccn4)ncn3)sc21 [Compound XXIII-C, 2′-((6-(Pyridin-2-ylamino)pyrimidin-4-yl)amino)spiro[cyclohexane-1,4′-thieno[2,3-c]pyrrol]-6′(5′H)-one]
100 to 1000 nM	0.1 to 10 nM		O=C1NC2(CCCCC2)c2cc(Nc3cc(N[C@H]4CCCOC4)ncn3)sc21 [Compound XXIV-A, (S)-2′-((6-((tetrahydro-2H-pyran-3-yl)amino)pyrimidin-4-yl)amino)spiro[cyclohexane-1,4′-thieno[2,3-c]pyrrol]-6′(5′H)-one]
